Laboratory results taken from patent publication US8785594B2, “Glycoproteins and glycosylated cells and a method for the preparation of the same” (Glycom A/S, priority 2007, dated 2014).

What was measured:
B16.BL6 melanoma cells [1] = experiment: Cell concentration and viability after conjugation, trypan blue (Example 14); assay type: cell-based
Experimental: (§1) Nine flasks (300 cm^2) (TPP, Trasadingen Switzerland) of confluent B16.BL6 melanoma cells grown in DMEM containing 10% fetal calf serum (without P/S) at 37.5° C. in 5% CO2 were used for this experiment. Growth medium was removed from the cells and 20 mL of HBSS containing D-glucose (without Mg^2+ and Ca^2+) (Gibco, Invitrogen, Taastrup, Denmark) was added to the cells and immediately removed again. Another 10 mL of HBSS containing D-glucose (without Mg^2+ and Ca^2+) was added and removed, before cells were harvested with Cell Dissociation Solution C5914 (Sigma-aldrich, Saint Louis, Mo.) (10 mL per flask) and transferred to 50 mL tubes (TPP, Trasadingen Switzerland). The cells were centrifuged for 3 minutes at 300 G at 20° C. and the supernatant was discarded. Subsequently, cells were washed twice in HBSS containing D-glucose (without Mg^2+ and Ca^2+), centrifuged as above and resuspended in HBSS containing D-glucose (without Mg^2+ and Ca^2+). The concentration of the cell suspension was determined.
Radioactive labelled and regular trisaccharide probe was dissolved in HBSS containing D-glucose (without Mg^2+ and Ca^2+) (Gibco Invitrogen, Taastrup, Denmark) and passed through sterile filters (0.2 μm Supor® Acrodisc® 13, Gelman Sciences, Ann Arbor, Mich.). Four different concentrations of each “Glycom conjugate” (25 mg, 5 mg, 1 mg and 0.1 mg) were made. Twelve flasks (150 cm^2) (TPP, Trasadingen Switzerland) were prepared each containing a total of 10×10^6 B16.BL6 cells. The trisaccharide probe was added and the total volume was adjusted to 20 mL with HBSS containing D-glucose (without Mg^2+ and Ca^2+). The cells were incubated with the “Glycom conjugate” for 1.5 hours at 37° C. After conjugation, the supernatant from each flask was transferred to separate 50 mL tubes (TPP, Trasadingen Switzerland). The cells were harvested with Cell Dissociation Solution C5914 (5 mL per flask) (Sigma-Aldrich, Saint Louis, Mo. and transferred to the 50 mL tubes containing the supernatant. The cells were centrifuged for 3 minutes at 300 G at 20° C. and resuspended in 5 mL of PBS (without Mg^2+ and Ca^2+). This was repeated 3 times before cell concentration and viability was determined by microscopical evaluation of trypan blue stained cell samples.

B16.BL6 melanoma cells [2] = experiment: Cell concentration and viability after conjugation, trypan blue (Example 15); assay type: cell-based
Experimental: as §1, with “Twelve flasks” for “Nine flasks”, “CO2 was” for “CO2 were”
Radioactive labelled and regular alpha-Gal trisaccharide-carbamate (9) probe (labeled on the cyclic carbamate carbon) was dissolved in HBSS containing D-glucose (without Mg^2+ and Ca^2+) (Gibco Invitrogen, Taastrup, Denmark) and passed through sterile filters (0.2 μm Supor® Acrodisc® 13, Gelman Sciences, Ann Arbor, Mich.). Eight different concentrations of radioactive labelled alpha-Gal trisaccharide-carbamate (9) (1 μg, 10 μg, 100 μg, 1 mg, 5 mg, 10 mg, 15 mg and 20 mg) and […] concentrations of regular “Glycom conjugate” (10 μg, 100 μg, 1 mg, 5 mg, 10 mg, 15 mg and 20 mg) were used. Twelve flasks (300 cm^2) (TPP, Trasadingen Switzerland) were prepared, each containing 10×10^6 B16.BL6 cells, for conjugation with the radioactive labelled trisaccharide probe, and 8 flasks (150 cm^2) (TPP, Trasadingen Switzerland) were prepared, each containing 5×10^6 B16.BL6 cells, for conjugation with the non-radioactive conjugate. The Glycom conjugate was added and the total volume was adjusted with HBSS containing D-glucose (without Mg^2+ and Ca^2+) so that each large flask (300 cm^2) contained a final volume of 20 mL and each medium flask (150 cm^2) contained a final volume of 10 mL. Cells were incubated with the “Glycom conjugate” for 1.5 hours at 37° C. After conjugation, the supernatant from each flask was transferred to separate 50 mL tubes (TPP, Trasadingen Switzerland). The cells were harvested with Cell Dissociation Solution (10 mL per large flask and 5 mL per medium flask) (Sigma-aldrich, Saint Louis, Mo.) and transferred to the 50 mL tubes containing the supernatant. The cells were centrifuged for 5 minutes at 300 G at 20° C. and resuspended in 5 mL of PBS (without Mg^2+ and Ca^2+). […]

[3] = regular conjugate 25 mg, 10×10^6 cells, 1.5 hours
[4] = reaction 2, regular conjugate 20 mg, 5×10^6 cells, 1.5 hours, after washing once
[5] = reaction 3, regular conjugate 15 mg
[6] = reaction 4, regular conjugate 10 mg
[7] = reaction 5, regular conjugate 5 mg
[8] = reaction 6, regular conjugate 1 mg
[9] = reaction 7, regular conjugate 100 μg
[10] = reaction 8, regular conjugate 10 μg
[11] = radioactive labelled conjugate 0.1 mg
[12] = radioactive labelled conjugate 1 mg
[13] = radioactive labelled conjugate 5 mg, cells from supernatant only
[14] = radioactive labelled conjugate 25 mg, attached cells only
[15] = reaction C, radioactive labelled conjugate 20 mg, 10×10^6 cells, 1.5 hours, after washing 4 times
[16] = reaction D, radioactive labelled conjugate 15 mg
[17] = reaction E, radioactive labelled conjugate 10 mg
[18] = reaction F, radioactive labelled conjugate 5 mg
[19] = reaction G, radioactive labelled conjugate 1 mg
[20] = reaction H, radioactive labelled conjugate 100 μg
[21] = reaction I, radioactive labelled conjugate 10 μg
[22] = reaction J, radioactive labelled conjugate 1 μg

O=C1N[C@@H]2O[C@H](CO)[C@@H](O[C@@H]3O[C@H](CO)[C@H](O)[C@H](O[C@H]4O[C@H](CO)[C@H](O)[C@H](O)[C@H]4O)[C@H]3O)[C@H](O)[C@H]2O1 [Compound 9, alpha-Gal trisaccharide-carbamate]
Cell concentration (B16.BL6 melanoma cells [1]; regular conjugate 0.1 mg): 7.4 × 10^5 | Cells harvested (B16.BL6 melanoma cells [1]; regular conjugate 0.1 mg): 3.7 × 10^6 | Cells harvested (percent) (B16.BL6 melanoma cells [1]; regular conjugate 0.1 mg): 37% | Viability (B16.BL6 melanoma cells [1]; regular conjugate 0.1 mg): 67.6% | Cell concentration (B16.BL6 melanoma cells [1]; regular conjugate 1 mg): 13.4 × 10^5 | Cells harvested (B16.BL6 melanoma cells [1]; regular conjugate 1 mg): 6.7 × 10^6 | Cells harvested (percent) (B16.BL6 melanoma cells [1]; regular conjugate 1 mg): 67% | Viability (B16.BL6 melanoma cells [1]; regular conjugate 1 mg): 79.1% | Cell concentration (B16.BL6 melanoma cells [1]; regular conjugate 5 mg): 7.0 × 10^5 | Cells harvested (B16.BL6 melanoma cells [1]; regular conjugate 5 mg): 3.5 × 10^6 | Cells harvested (percent) (B16.BL6 melanoma cells [1]; regular conjugate 5 mg): 35% | Viability (B16.BL6 melanoma cells [1]; regular conjugate 5 mg): 91.4% | Cell concentration (B16.BL6 melanoma cells [1]; [3]): 9.0 × 10^5 | Cells harvested (B16.BL6 melanoma cells [1]; [3]): 4.5 × 10^6 | Cells harvested (percent) (B16.BL6 melanoma cells [1]; [3]): 45% | Viability (B16.BL6 melanoma cells [1]; [3]): 77.8% | Cell concentration (B16.BL6 melanoma cells [2]; [4]): 4.2 × 10^5 cells/mL | Cells harvested (B16.BL6 melanoma cells [2]; [4]): 1.1 × 10^6 | Cells harvested (percent) (B16.BL6 melanoma cells [2]; [4]): 21% | Viability (B16.BL6 melanoma cells [2]; [4]): 85.7% | Cell concentration (B16.BL6 melanoma cells [2]; [5]): 6.0 × 10^5 cells/mL | Cells harvested (B16.BL6 melanoma cells [2]; [5]): 1.5 × 10^6 | Cells harvested (percent) (B16.BL6 melanoma cells [2]; [5]): 30% | Viability (B16.BL6 melanoma cells [2]; [5]): 80.0% | Cell concentration (B16.BL6 melanoma cells [2]; [6]): 2.8 × 10^5 cells/mL | Cells harvested (B16.BL6 melanoma cells [2]; [6]): 0.7 × 10^6 | Cells harvested (percent) (B16.BL6 melanoma cells [2]; [6]): 14% | Viability (B16.BL6 melanoma cells [2]; [6]): 71.4% | Cell concentration (B16.BL6 melanoma cells [2]; [7]): 4.4 × 10^5 cells/mL | Cells harvested (B16.BL6 melanoma cells [2]; [7]): 1.1 × 10^6 | Cells harvested (percent) (B16.BL6 melanoma cells [2]; [7]): 22% | Viability (B16.BL6 melanoma cells [2]; [7]): 81.8% | Cell concentration (B16.BL6 melanoma cells [2]; [8]): 4.2 × 10^5 cells/mL | Cells harvested (B16.BL6 melanoma cells [2]; [8]): 1.1 × 10^6 | Cells harvested (percent) (B16.BL6 melanoma cells [2]; [8]): 21% | Viability (B16.BL6 melanoma cells [2]; [8]): 66.7% | Cell concentration (B16.BL6 melanoma cells [2]; [9]): 6.0 × 10^5 cells/mL | Cells harvested (B16.BL6 melanoma cells [2]; [9]): 1.5 × 10^6 | Cells harvested (percent) (B16.BL6 melanoma cells [2]; [9]): 30% | Viability (B16.BL6 melanoma cells [2]; [9]): 60.1% | Cell concentration (B16.BL6 melanoma cells [2]; [10]): 4.2 × 10^5 cells/mL | Cells harvested (B16.BL6 melanoma cells [2]; [10]): 1.1 × 10^6 | Cells harvested (percent) (B16.BL6 melanoma cells [2]; [10]): 21% | Viability (B16.BL6 melanoma cells [2]; [10]): 57.1%

O=[13C]1N[C@@H]2O[C@H](CO)[C@@H](O[C@@H]3O[C@H](CO)[C@H](O)[C@H](O[C@H]4O[C@H](CO)[C@H](O)[C@H](O)[C@H]4O)[C@H]3O)[C@H](O)[C@H]2O1 [radioactive labelled conjugate]
Cell concentration (B16.BL6 melanoma cells [1]; [11]): 13.8 × 10^5 | Cells harvested (B16.BL6 melanoma cells [1]; [11]): 6.9 × 10^6 | Cells harvested (percent) (B16.BL6 melanoma cells [1]; [11]): 69% | Viability (B16.BL6 melanoma cells [1]; [11]): 91.3% | Cell concentration (B16.BL6 melanoma cells [1]; [12]): 14.8 × 10^5 | Cells harvested (B16.BL6 melanoma cells [1]; [12]): 7.4 × 10^6 | Cells harvested (percent) (B16.BL6 melanoma cells [1]; [12]): 74% | Viability (B16.BL6 melanoma cells [1]; [12]): 93.2% | Cell concentration (B16.BL6 melanoma cells [1]; [13]): 10.8 × 10^5 | Cells harvested (B16.BL6 melanoma cells [1]; [13]): 5.4 × 10^6 | Cells harvested (percent) (B16.BL6 melanoma cells [1]; [13]): 54% | Viability (B16.BL6 melanoma cells [1]; [13]): 81.5% | Cell concentration (B16.BL6 melanoma cells [1]; [14]): 2.0 × 10^5 | Cells harvested (B16.BL6 melanoma cells [1]; [14]): 1.0 × 10^6 | Cells harvested (percent) (B16.BL6 melanoma cells [1]; [14]): 10% | Viability (B16.BL6 melanoma cells [1]; [14]): 90.0% | Cell concentration (B16.BL6 melanoma cells [2]; [15]): 6.1 × 10^6 cells/mL | Cells harvested (B16.BL6 melanoma cells [2]; [15]): 2.7 × 10^6 | Cells harvested (percent) (B16.BL6 melanoma cells [2]; [15]): 27.5% | Viability (B16.BL6 melanoma cells [2]; [15]): 82.0% | Cell concentration (B16.BL6 melanoma cells [2]; [16]): 4.3 × 10^6 cells/mL | Cells harvested (B16.BL6 melanoma cells [2]; [16]): 1.9 × 10^6 | Cells harvested (percent) (B16.BL6 melanoma cells [2]; [16]): 19.4% | Viability (B16.BL6 melanoma cells [2]; [16]): 88.9% | Cell concentration (B16.BL6 melanoma cells [2]; [17]): 12 × 10^6 cells/mL | Cells harvested (B16.BL6 melanoma cells [2]; [17]): 5.4 × 10^6 | Cells harvested (percent) (B16.BL6 melanoma cells [2]; [17]): 54.0% | Viability (B16.BL6 melanoma cells [2]; [17]): 86.7% | Cell concentration (B16.BL6 melanoma cells [2]; [18]): 5.2 × 10^6 cells/mL | Cells harvested (B16.BL6 melanoma cells [2]; [18]): 2.3 × 10^6 | Cells harvested (percent) (B16.BL6 melanoma cells [2]; [18]): 23.4% | Viability (B16.BL6 melanoma cells [2]; [18]): 82.7% | Cell concentration (B16.BL6 melanoma cells [2]; [19]): 5.9 × 10^6 cells/mL | Cells harvested (B16.BL6 melanoma cells [2]; [19]): 2.7 × 10^6 | Cells harvested (percent) (B16.BL6 melanoma cells [2]; [19]): 26.6% | Viability (B16.BL6 melanoma cells [2]; [19]): 91.5% | Cell concentration (B16.BL6 melanoma cells [2]; [20]): 3.8 × 10^6 cells/mL | Cells harvested (B16.BL6 melanoma cells [2]; [20]): 1.7 × 10^6 | Cells harvested (percent) (B16.BL6 melanoma cells [2]; [20]): 17.1% | Viability (B16.BL6 melanoma cells [2]; [20]): 81.6% | Cell concentration (B16.BL6 melanoma cells [2]; [21]): 6.2 × 10^6 cells/mL | Cells harvested (B16.BL6 melanoma cells [2]; [21]): 2.8 × 10^6 | Cells harvested (percent) (B16.BL6 melanoma cells [2]; [21]): 27.9% | Viability (B16.BL6 melanoma cells [2]; [21]): 82.3% | Cell concentration (B16.BL6 melanoma cells [2]; [22]): 5.0 × 10^6 cells/mL | Cells harvested (B16.BL6 melanoma cells [2]; [22]): 2.3 × 10^6 | Cells harvested (percent) (B16.BL6 melanoma cells [2]; [22]): 22.5% | Viability (B16.BL6 melanoma cells [2]; [22]): 84.0%
